Test results taken from patent EP0538469A1, “SULFONANILIDE DERIVATIVE AND MEDICINE” (NIPPON SHINYAKU COMPANY, LIMITED, priority 1990, dated 1991).
Structures can show the parent of a compound that is named as a salt. Where two headings read alike, the source gives them in different places.

How the values were obtained:
femoral artery = assay: Contraction of isolated femoral artery (Magnus vessel, cumulative concentration/response curves); assay type: cell-based, rabbits; settings: Oryctolagus cuniculus, female rabbit femoral artery, contraction
Method: (§1) The experiment was conducted using female rabbits of 2 to 3.5 kg body weight.
(§2) The animals were killed by draining the blood out under anesthetizing with pentobarbital (30 mg/kg, by intravenous injection) and smooth muscle of urethra and femoral artery were excised. Each of the excised samples was placed in a Magnus vessel filled with a modified Krebs solution (at 37°C; under mixed gas) and both smooth muscle of urethra and femoral artery were suspended with 1 g load.
(§3) The drug to be tested was accumulated to contract the samples whereby the concentration/response curves were obtained wherefrom ED₅₀ (M) and pD₂ were calculated and the selectivity to urethra was determined.

smooth muscle of urethra = assay: Contraction of isolated smooth muscle of urethra (Magnus vessel, cumulative concentration/response curves); assay type: cell-based, rabbits; settings: Oryctolagus cuniculus, female rabbit urethra smooth muscle, contraction
Method: as §1, §2, §3

male rabbits = assay: Action to intra urethral pressure and blood pressure, intravenous administration; assay type: in vivo; settings: i.v.; for ED (30%) / ED (150%): Oryctolagus cuniculus, iv, anesthetized male rabbits; for ED (30%): dose increasing blood pressure to an extent of 30%, read-out: BP(B) [BP(ED30%↑)] (converted); for ED (150%): dose increasing intra urethral pressure to an extent of 150%, read-out: IUP(A) [IUP(ED150%↑)]; for Selectivity (B/A): BP(ED30%↑) / IUP(ED150%↑)
Method: The experiment was conducted using male rabbits of body weight of 1.4-3.1 kg under fasted condition. The animals were fixed at backs under uretrane(1.2g/kg s.c.) anesthesia, abdomen was subjected to a midline incision and bladder was exposed. In order to prevent the urine stored in the bladder on the intra urethral pressure, the urine in the bladder was compulsorily discharged out of the body. After that, a catheter was inserted into both ureters and the urine discharged from kidney was introduced outside.
The intra urethral pressure(IUP) at the urethra tract of about 0.5-1 cm distance from the neck of the bladder was measured using a microtip transducer transducer equipped with a baloon (filled with physiological saline solution) at the top end. Further, polyethylene tube was inserted into femoral artery to measure the blood pressure (BP).
The drug to be tested was injected into the vein of ear every fifteen minutes and the maximum responses of the increasing action of intra urethral pressure tract and of the increasing action of blood pressure were measured at each dose.

[1] = Acute toxicity, oral, rats; assay type: in vivo; settings: rat, in vivo, SD rats, read-out: Rats LD₅₀
Method: (§4) Numbers of mice (ddY-strain, male, 6-8 weeks age) and rats (SD strain, male, 6-7 weeks age) in each group were 4 and 6, respectively.
(§5) The drug to be tested was orally administered at the dose of 10 ml/kg using an oral probe to the animals which were fasted since one day before (for 16-18 hours). After giving the drug, the animals were returned to the state where both feed and water were available and the general symptom and the dead cases, if any, were checked for two weeks. The drug was suspended in physiological saline solution containing 0.5% of methylcellulose (0.5% MC) and the suspension was given to the animals by oral route.

rats (SD strain, male) = assay: Acute toxicity, oral, rats; assay type: in vivo; settings: observed two weeks
Method: as §4, §5

mice (ddY-strain, male) = assay: Acute toxicity, oral, mice; assay type: in vivo; settings: observed two weeks
Method: as §4, §5

Row | Structure (SMILES) | ED (30%) (male rabbits) [mg/kg] | ED (150%) (male rabbits) [mg/kg] | LD50 at 336 h [1] [mg/kg] | Rats Dead/ Total (rats (SD strain, male); 300 mg/kg) | Selectivity (B/A) (male rabbits; hydrochloride) | Rats Dead/ Total (rats (SD strain, male); 100 mg/kg) | also measured
1 | CNC[C@H](O)c1cccc(O)c1 [Phenylephrine] | 0.019 | 0.037 |  |  |  |  | EC50 (femoral artery; read-out: ED₅₀ Femoral Artery(B)): 480 nM; EC50 (femoral artery; read-out: pD₂ Femoral Artery(B)): 479 nM; EC50 (smooth muscle of urethra; read-out: ED₅₀ Urethra(A)): 3750 nM; EC50 (smooth muscle of urethra; read-out: pD₂ Urethra(A)): 3720 nM
2 | C[C@H](N)[C@H](O)c1ccc(F)c(NS(C)(=O)=O)c1 (racemic) [(70A), (±)-erythro-5'-(2-Amino-1-hydroxypropyl)-2'-fluoromethanesulfonanilide hydrochloride] | 0.1 | 0.028 | > 300 | 2 / 6 | 3.6 |  | 
3 | CNCC(O)c1cc(NS(C)(=O)=O)ccc1Cl (racemic) [(67A), (±)-4'-Chloro-3'-(1-hydorxy-2-methylaminoethyl)methanesulfonanilide hydrochloride, reference compound] | 2.93 | 0.7 | > 300 | 0 / 6 | 4.2 |  | 
4 | CS(=O)(=O)Nc1ccc(F)c([C@@H](O)CN)c1.O=C(O)C(O)C(O)C(=O)O [(49K), (R)-(-)-3'-(2-Amino-1-hydroxyethyl)-4'-fluoromethanesulfonanilide L-(+)-tartrate] | 0.059 | 0.009 | > 1000 | 0 / 6 |  | 0 / 6 | Mice Dead/ Total (mice (ddY-strain, male); 1000 mg/kg): 0 / 4; Mice Dead/ Total (mice (ddY-strain, male); 3000 mg/kg): 0 / 4; Rats Dead/ Total (rats (SD strain, male); 500 mg/kg): 2 / 6; Rats Dead/ Total (rats (SD strain, male); 1000 mg/kg): 1 / 6; Selectivity (B/A) (male rabbits): 6.6
5 | CNCC(O)c1cc(NS(C)(=O)=O)c(F)cc1F.Cl (racemic) [(71A), (±)-2',4'-Difluoro-5'-(1-hydroxy-2-methylaminoethyl)methanesulfonanilide hydrochloride] | 0.095 | 0.045 | > 300 | 0 / 6 | 2.1 |  | 
6 | CNC[C@H](O)c1ccc(F)c(NS(C)(=O)=O)c1 [(61B)] |  |  | 36.1 | 6 / 6 |  | 5 / 6 | Rats Dead/ Total (rats (SD strain, male); 3 mg/kg): 0 / 6; Rats Dead/ Total (rats (SD strain, male); 10 mg/kg): 2 / 6; Rats Dead/ Total (rats (SD strain, male); 30 mg/kg): 1 / 6
7 | CS(=O)(=O)Nc1cc(F)cc(C(O)CN)c1.Cl (racemic) [(73A), (±)-3'-(2-Amino-1-hydroxyethyl)-5'-fluoromethanesulfonanilide hydrochloride] | 0.081 | 0.027 | ~200 | 5 / 6 | 3.0 | 1 / 6 | 
